Reference: patent US9238571B2, “Formulations for c-Met kinase inhibitors” (Merck Sharp & Dohme Limited, priority 2009, dated 2016)

Columns and labels:
[1] = Solubility measurements of Compound A HCl salt in 250 mL SGF with citric acid pre-dissolved; format: physicochemical
Protocol: FIG. 2 describes the solubility measurements for Compound A HCl salt in 250 mL of SGF with various amounts of citric acid anhydrous pre-dissolved.
Within this formulation the amount of citric acid anhydrous available is 160.44 mg (Target fill weight for the capsule is 382.0 mg)

[2] = Clinical studies with Compound A (exposure among patients); format: in vivo
Description: The formulations of the instant invention have advantages over other formulations of c-Met kinase inhibitors. […] Based upon the sharp dependence of solubility on pH, it can be postulated that the performance of these formulations can vary based on variability in gastric pH. […] Exposure can vary due to many factors, including whether the inhibitor is taken with or without food. The formulations of the instant invention give in vivo exposures to the drug that are less sensitive to changes in gastric pH than other formulations.

Cn1cc(-c2cnc3ccc4ccc(CS(=O)(=O)NCc5ccccn5)cc4c(=O)c3c2)cn1 [Compound A, 1-[3-(1-Methyl-1H-pyrazol-4-yl)-5-oxo-5H-benzo[4,5]cyclohepta[1,2-b]pyridin-7-yl]-N-(pyridin-2-ylmethyl)methanesulfonamide]
maximum solubility ([1]; 300 mg of citric acid fully dissolved in 250 mL of SGF pH 3.0, Compound A HCl salt (FIG. 2)): approximately 15 mg | % dissolved equated from maximum solubility ([1]; for a 110 mg potency capsule, 300 mg citric acid pre-dissolved in 250 mL SGF pH 3.0): 14% | variability in Compound A exposure among patients [2]: high variability | exposure in patients concomitantly taking antacids ([2]; some patients with high gastric pH (antacids)): lower exposures
